Laboratory results published in patent publication US20210379063A1, “ORAL AMINODIHYDROPHTHALAZINEDIONE COMPOSITIONS AND THEIR USE IN THE TREATMENT OF NON-VIRAL HEPATITIS” (Immunopharma Plus D.O.O., priority 2018, published 2021).
“And” between values parts separate entries of the source, which are not always exact repeats. Equal values may be shown once. Read-outs that look alike come from different tables or passages of the source.

What was measured:
[1] = system: porcine large intestine (colon); assay: Porcine large intestine permeability, Franz cell; details: for concentration in receptor comp, large intestine, AVG / concentration in receptor compartment, large intestine: 10 mM donor solution; for concentration in receptor compartment, large intestine: single chambers
Procedure: The intestine was prepared so the mucous side will be facing the donor compartment.

porcine small intestine = details: for concentration in receptor compartment, small intestine, AVG / concentration in receptor compartment, small intestine: 10 mM donor solution; for concentration in receptor compartment, small intestine: single chambers
Procedure: Porcine Small Intestinal (SI) Permeability Procedure • Full thickness pig small intestinal delivered to Solubest on the day of the experiment. • Experiments were carried out on 6 slices 2 cm*2 cm with full thickness pig small intestinal sample • The intestinal was prepared so brush border side is facing the donor compartment. • According to Solubest protocol the excess mucus and connective tissue were removed • The receiver compartment contains 0.01M Phosphate Buffer pH 7.4 (PBS). • Receiver's samples were withdrawn at 5 time points (30 min, 60 min, 120 min, 4 hours and 6 hours). • Water pump was set to temp 38±1° C. in order to keep fixed temp in receptor department at 37±1° C.

[2] = system: Toxic hepatopathy degree II
Procedure: The patient received standard hepatic therapy: Duphalac 50 ml 3 times a day, Hepasol A 1000 ml, Heptral 800 mg. Detoxification therapy was carried out. […] The patient was monitored for another 1 month in a poison center.

[3] = remark: listed apart in the source
Procedure: Title: FaSSGF: Fasted State Simulating Gastric Fluid
Preparation FaSSGF (for 2000 ml)
Name: FeSSGF: Fed State Simulating Gastric Fluid
Name: FaSSIF Fasted State Simulating Intestinal Fluid
Name: FeSSIF Fed State Simulating Intestinal Fluid
For preparation of 2 L media
Name: SCoF (Simulated Colonic Fluid)
Preparation of 100 ml solution
Prior to testing • Lactobacilli drops (100 million per dissolution/20 million per permeation donor compartment) added
Each presented dissolution data is a summary of 3 results.

[4] = per os, enteric coated tablets, with standard hepatic therapy

Nc1cccc2c(=O)[n-][nH]c(=O)c12.[Na+] [Tamerit, aminodihydrophthalazinedione sodium]
permeability through large intestine tissue, in words [1]: good permeability | concentration in receptor comp, large intestine, AVG ([1]; 0 min): 0.000 mg/mL | concentration in receptor compartment, large intestine ([1]; 0 min): 0 mg/mL | concentration in receptor comp, large intestine, AVG ([1]; 30 min): 0.005 mg/mL | concentration in receptor comp, large intestine, AVG ([1]; 60 min): 0.007 mg/mL | concentration in receptor comp, large intestine, AVG ([1]; 120 min): 0.017 mg/mL | concentration in receptor comp, large intestine, AVG ([1]; 240 min): 0.035 mg/mL | concentration in receptor compartment, large intestine ([1]; 240 min, sodium): 0.0306 mg/mL and 0.0250 mg/mL and 0.0364 mg/mL and 0.0490 mg/mL | concentration in receptor comp, large intestine, AVG ([1]; 360 min): 0.048 mg/mL | concentration in receptor comp, large intestine, AVG ([1]; 720 min): 0.090 mg/mL | time to reach steady state of permeation ([1]; large intestinal tissue): four | Recovery from donor comp, % ([1]; large intestine, 0 min): 0.00% | mg in receptor comp ([1]; large intestine, 0 min): 0.000 mg | Recovery from donor comp, % ([1]; large intestine, 30 min): 0.45% | mg in receptor comp ([1]; large intestine, 30 min): 0.026 mg | Recovery from donor comp, % ([1]; large intestine, 60 min): 0.63% | mg in receptor comp ([1]; large intestine, 60 min): 0.036 mg | Recovery from donor comp, % ([1]; large intestine, 120 min): 1.46% | mg in receptor comp ([1]; large intestine, 120 min): 0.084 mg | Recovery from donor comp, % ([1]; large intestine, 240 min): 3.07% | mg in receptor comp ([1]; large intestine, 240 min): 0.176 mg | Recovery from donor comp, % ([1]; large intestine, 360 min): 4.20% | mg in receptor comp ([1]; large intestine, 360 min): 0.242 mg | Tamerit Permeability vs Propranolol Permeability ([1]; large intestine, FIG. 11): permeates better than propranolol | permeation compared with Propranolol ([1]; large intestine, after 4 hours): as good as Propranolol | concentration in receptor compartment, small intestine, AVG (porcine small intestine; 0 min): 0 µg/mL | concentration in receptor compartment, small intestine (porcine small intestine; 0 min): 0 µg/mL | concentration in receptor compartment, small intestine, AVG (porcine small intestine; 30 min): 1 µg/mL | concentration in receptor compartment, small intestine, AVG (porcine small intestine; 60 min): 3 µg/mL | concentration in receptor compartment, small intestine (porcine small intestine; 60 min, sodium): 3.5 µg/mL and 2.4 µg/mL | concentration in receptor compartment, small intestine, AVG (porcine small intestine; 120 min): 6 µg/mL | concentration in receptor compartment, small intestine (porcine small intestine; 120 min, sodium): 5.4 µg/mL and 5.6 µg/mL and 9.1 µg/mL and 5.1 µg/mL | concentration in receptor compartment, small intestine, AVG (porcine small intestine; 240 min): 12 µg/mL | concentration in receptor compartment, small intestine, AVG (porcine small intestine; 360 min): 23 µg/mL | concentration in receptor compartment, small intestine (porcine small intestine; 360 min, sodium): 26.4 µg/mL and 19.5 µg/mL and 28.7 µg/mL and 19 µg/mL | Tamerit Permeability vs Propranolol Permeability (porcine small intestine; small intestine, FIG. 11): permeates better than propranolol | permeation compared with Propranolol (porcine small intestine; small intestine, after 4 hours): three time better than Propranolol | state of a solution containing 10 mM: supersaturated solution | adverse effects ([2]; during the use of Tamerit): no adverse effects were noted | blood biochemical parameters [2, 4]: fully normalized | relief of symptoms of intoxication [2, 4]: highly effective | Dissolution, % ([3]; FaSSGF pH 1.6, 15 min): 88.24% | Dissolution, % ([3]; FaSSGF pH 1.6, 30 min): 90.68% | Dissolution, % ([3]; FaSSIF pH 6.5, 30 min, sodium): 98.62% | Dissolution, % ([3]; FaSSIF pH 6.5, 60 min): 103.11% | Dissolution, % ([3]; FaSSIF pH 6.5, 90 min): 102.16% | Dissolution, % ([3]; FaSSIF pH 6.5, 120 min): 102.37% | Dissolution, % ([3]; FaSSIF pH 6.5, 180 min): 103.78% | Dissolution, % ([3]; FeSSCoF pH 6.0, 15 min, sodium): 90% and 90.07% | Dissolution, % ([3]; FeSSCoF pH 6.0, 2 hr): 89.21% | Dissolution, % ([3]; FeSSCoF pH 6.0, 4 hr, sodium): 100% and 102.12% | Dissolution, % ([3]; FeSSCoF pH 6.0, 24 hr): 95.77% | Dissolution, % ([3]; FeSSGF pH 5.0, 15 min): 86.83% | Dissolution, % ([3]; FeSSGF pH 5.0, 30 min): 77.65% | Dissolution, % ([3]; FeSSGF pH 5.0, 45 min): 75.6% | Dissolution, % ([3]; FeSSGF pH 5.0, 90 min): 79.42% | Dissolution, % ([3]; FeSSIF pH 5.0, 30 min): 79.65% | Dissolution, % ([3]; FeSSIF pH 5.0, 60 min): 69.28% | Dissolution, % ([3]; FeSSIF pH 5.0, 90 min, sodium): 90% and 87.40% | Dissolution, % ([3]; FeSSIF pH 5.0, 120 min): 84.48% | Dissolution, % ([3]; FeSSIF pH 5.0, 180 min): 88.50% | pH at which Tamerit is the most soluble ([3]; Tamerit powder dissolution, FIG. 2): 6.5 | stability ([3]; colonic conditions): very stable | stability ([3]; fast and fed conditions of the small intestinal): quite stable | stability ([3]; fast and fed gastric conditions): sufficient stability | dissolution ([3]; fast gastric media): ~90% | dissolution ([3]; fed gastric media): 80-90%
